Tests used:
[1] = target: T1, lactase obtained from a strain of Aspergillus oryzae (extracellular enzyme, unimmobilized) (Aspergillus oryzae, UniProt Q2UCU3); experiment: Km and Ki of the unimmobilized lactase, lactose hydrolysis; type: biochemical
T1 construct: the lactase obtained from a strain of Aspergillus oryzae having; host or cells: Aspergillus oryzae (natural producer)
T1 sequence (Q2UCU3 19-1005): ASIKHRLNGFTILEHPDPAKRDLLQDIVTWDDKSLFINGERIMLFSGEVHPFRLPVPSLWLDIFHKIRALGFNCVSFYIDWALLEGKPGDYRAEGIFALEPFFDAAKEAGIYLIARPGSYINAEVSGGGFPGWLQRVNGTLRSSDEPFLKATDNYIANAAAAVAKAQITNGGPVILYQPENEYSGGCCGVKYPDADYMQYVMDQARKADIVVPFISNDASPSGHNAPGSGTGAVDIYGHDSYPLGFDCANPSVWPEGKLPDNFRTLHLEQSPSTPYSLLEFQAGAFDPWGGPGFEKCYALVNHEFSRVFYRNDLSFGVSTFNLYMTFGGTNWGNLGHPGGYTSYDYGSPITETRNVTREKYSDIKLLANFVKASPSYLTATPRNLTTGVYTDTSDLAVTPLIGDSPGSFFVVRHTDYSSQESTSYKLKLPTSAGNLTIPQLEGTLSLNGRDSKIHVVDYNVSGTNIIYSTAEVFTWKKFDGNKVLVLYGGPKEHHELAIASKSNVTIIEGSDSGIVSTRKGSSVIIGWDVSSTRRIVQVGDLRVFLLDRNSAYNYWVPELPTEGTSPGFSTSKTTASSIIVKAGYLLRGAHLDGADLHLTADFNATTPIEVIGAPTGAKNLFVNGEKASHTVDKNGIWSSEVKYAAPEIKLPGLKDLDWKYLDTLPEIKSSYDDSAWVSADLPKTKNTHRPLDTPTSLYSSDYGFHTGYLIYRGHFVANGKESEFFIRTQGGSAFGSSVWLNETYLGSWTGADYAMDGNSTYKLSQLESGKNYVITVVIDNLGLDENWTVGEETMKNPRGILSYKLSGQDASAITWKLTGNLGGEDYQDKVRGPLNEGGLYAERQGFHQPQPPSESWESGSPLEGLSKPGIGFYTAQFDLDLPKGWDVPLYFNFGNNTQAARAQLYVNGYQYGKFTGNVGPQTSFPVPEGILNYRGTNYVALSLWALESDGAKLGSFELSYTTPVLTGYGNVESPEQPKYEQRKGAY
Procedure: Ki=7±4 mole/m^3 (0.007±0.004 molell) (pH 4.5, 30°C, substrate; lactose). It is believed that the characteristics of the lactase are well defined by the above data, and some other properties are given below:
In the present specification, 1 ILU is defined as the amount of lactase which produces 1 µ mole per minute of glucose at pH 4.5 at 30°C when a 13.3 w/v% of lactose solution is used as the substrate. The quantity of glucose thus prepared is defined by using glycose oxidase-peroxidase- dye system. When the measurement of the activity (unit) is carried out at a different pH or temperature, the pH or the temperature will specifically be given in each case.

[2] = target: T2, immobilized lactase: Aspergillus oryzae lactase covalently attached (glutaraldehyde) on macroporous amphoteric phenol-formaldehyde ion-exchange resin (Aspergillus oryzae, UniProt Q2UCU3); experiment: Km and Ki of the immobilized lactase, general characteristics; type: biochemical; conditions: pH 4.5, 30°C, substrate; lactose; value in brackets
T2 construct: the lactase originated from Aspergillus oryzae is immobilized on one of the carriers; host or cells: Aspergillus oryzae (natural producer)
Procedure: The immobilized lactase (0.1 to 0.3 ml) is suspended in a 0.05M acetate buffer solution (pH 4.5). To this solution, a solution of lactose in the same kind of buffer solution as above is added to give a 13.3 w/v % lactose solution. The solution was shaken at 30°C for 15 minutes with a shaker (100 rpm, shaking width; 3.5 cm). After the removal of the immobilized lactase by filtration, the content of the glucose in the filtrate is determined using glucose oxidase, peroxidase and dye system. The amount of the enzyme which produces 1 p mole of glucose in one minute is defined as 1 unit (1 ILU). The pH level and the temperature of the measurement of the activity will be stated in each case in the specification.

| SMILES | Ki ([1]; read-out: Inhibition constant by galactose Ki, pH 4.5, 30°C, substrate, lactose, value in brackets) [mM] | Inhibition constant by galactose Ki [2] [mM] | Km value ([1]; lactase dry powder of Example 3 (Shinnihon Kagaku Kogyo Co., 73 ILU/mg)) [mole/I] | Michaelis constant Km [2] [mole/I] |
| --- | --- | --- | --- | --- |
| OC[C@H]1OC(O)[C@H](O)[C@@H](O)[C@H]1O (stereo partly shown) [galactose] | 7 ± 4 | 150 ± 100 | – | – |
| OC[C@H]1O[C@@H](O[C@H]2[C@H](O)[C@@H](O)C(O)O[C@@H]2CO)[C@H](O)[C@@H](O)[C@H]1O (stereo partly shown) [lactose] | – | – | 0.11 | 0.15±0.1 |

Source: patent publication EP0026672B1, “Immobilized lactase and its use in hydrolysing lactose” (SUMITOMO CHEMICAL COMPANY, LIMITED, priority 1979, dated 1981)
